Assay results from ChEMBL document CHEMBL4507262, “Data for DCP probe A-1596586” (2021).

Assays:
[1] = tested on: ALK tyrosine kinase receptor (Homo sapiens), Q9UM73 [C1156Y]; details: Compound concentration 1000.0 nM
[2] = molecular target: Cyclin-dependent kinase 3 (Homo sapiens) (UniProt Q00526); details: Compound concentration 1000.0 nM
[3] = tested on: Tyrosine-protein kinase ABL1 (Homo sapiens), P00519 [F317L]; details: Compound concentration 1000.0 nM
[4] = molecular target: Sodium- and chloride-dependent GABA transporter 1 (Rattus norvegicus) (UniProt P23978); test: GABA transporter Eurofins-Cerep binding assay; parameters: ligand concentration 10 nM; details: filed as antagonist, Compound concentration 10.0 uM
[5] = tested on: Tyrosine-protein kinase ABL1 (Homo sapiens), P00519 [H396P]; details: Compound concentration 1000.0 nM
[6] = molecular target: Protein-tyrosine kinase 2-beta (Homo sapiens) (UniProt Q14289); details: Compound concentration 1000.0 nM
[7] = tested on: Phosphatidylinositol 4,5-bisphosphate 3-kinase catalytic subunit alpha isoform (Homo sapiens), P42336 [Q546K]; details: Compound concentration 1000.0 nM
[8] = tested on: Epidermal growth factor receptor (Homo sapiens), P00533 [UNDEFINED MUTATION]; details: Compound concentration 1000.0 nM
[9] = molecular target: Tyrosine-protein kinase JAK3 (Homo sapiens) (UniProt P52333); details: Compound concentration 1000.0 nM
[10] = molecular target: 5'-AMP-activated protein kinase catalytic subunit alpha-2 (Homo sapiens) (UniProt P54646); details: Compound concentration 1000.0 nM
[11] = molecular target: Mitogen-activated protein kinase kinase kinase 14 (Homo sapiens) (UniProt Q99558); details: Compound concentration 1000.0 nM
[12] = molecular target: Cyclin-dependent kinase 2 (Homo sapiens) (UniProt P24941); details: Compound concentration 1000.0 nM
[13] = molecular target: Dual specificity protein kinase TTK (Homo sapiens) (UniProt P33981); details: Compound concentration 1000.0 nM
[14] = tested on: Tyrosine-protein kinase ABL1 (Homo sapiens), P00519 [Q252H]; details: Compound concentration 1000.0 nM
[15] = molecular target: Casein kinase I isoform delta (Homo sapiens) (UniProt P48730); details: Compound concentration 1000.0 nM
[16] = tested on: Phosphatidylinositol 4,5-bisphosphate 3-kinase catalytic subunit alpha isoform (Homo sapiens), P42336 [M1043I]; details: Compound concentration 1000.0 nM
[17] = molecular target: Interleukin-1 receptor-associated kinase 3 (Homo sapiens) (UniProt Q9Y616); details: Compound concentration 1000.0 nM
[18] = tested on: Tyrosine-protein kinase ABL1 (Homo sapiens), P00519 [H396P]; details: Compound concentration 1000.0 nM; remark: listed apart in the source
[19] = molecular target: D(1A) dopamine receptor (Homo sapiens) (UniProt P21728); details: Compound concentration 10.0 uM
[20] = molecular target: Muscarinic acetylcholine receptor M3 (Homo sapiens) (UniProt P20309); details: Compound concentration 10.0 uM
[21] = molecular target: Sodium-dependent dopamine transporter (Homo sapiens) (UniProt Q01959); test: dopamine transporter (h) Eurofins-Cerep binding assay; parameters: ligand concentration 4 nM; details: filed as antagonist, Compound concentration 10.0 uM
[22] = molecular target: Mitogen-activated protein kinase kinase kinase 11 (Homo sapiens) (UniProt Q16584); details: Compound concentration 1000.0 nM
[23] = molecular target: Phosphatidylinositol 4-phosphate 3-kinase C2 domain-containing subunit beta (Homo sapiens) (UniProt O00750); details: Compound concentration 1000.0 nM
[24] = molecular target: 5-hydroxytryptamine receptor 1A (Homo sapiens) (UniProt P08908); test: 5-HT1A (h) Eurofins-Cerep binding assay; parameters: ligand concentration 0.5 nM; details: filed as agonist, Compound concentration 10.0 uM
[25] = molecular target: Calcium/calmodulin-dependent protein kinase type 1 (Homo sapiens) (UniProt Q14012); details: Compound concentration 1000.0 nM
[26] = molecular target: Mitogen-activated protein kinase kinase kinase kinase 2 (Homo sapiens) (UniProt Q12851); details: Compound concentration 1000.0 nM
[27] = molecular target: T1, Muscarinic acetylcholine receptor M5 (Homo sapiens) (UniProt P08912); details: Compound concentration 10.0 uM
T1 sequence (whole entry): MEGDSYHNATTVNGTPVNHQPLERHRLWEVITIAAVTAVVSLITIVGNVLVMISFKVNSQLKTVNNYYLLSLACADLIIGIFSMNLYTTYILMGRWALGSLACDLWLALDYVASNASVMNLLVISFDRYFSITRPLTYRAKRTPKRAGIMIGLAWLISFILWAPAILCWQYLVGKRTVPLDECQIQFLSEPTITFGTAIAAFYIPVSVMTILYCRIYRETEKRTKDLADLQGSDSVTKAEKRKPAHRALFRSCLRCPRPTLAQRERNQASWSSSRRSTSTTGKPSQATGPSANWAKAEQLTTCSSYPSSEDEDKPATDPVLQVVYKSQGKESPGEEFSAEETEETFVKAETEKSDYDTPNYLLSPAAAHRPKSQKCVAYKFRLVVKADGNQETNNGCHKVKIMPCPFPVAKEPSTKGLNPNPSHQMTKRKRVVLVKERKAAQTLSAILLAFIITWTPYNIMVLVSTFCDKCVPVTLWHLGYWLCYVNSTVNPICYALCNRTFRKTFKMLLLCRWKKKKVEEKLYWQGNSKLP

[28] = molecular target: Serine/threonine-protein kinase ULK3 (Homo sapiens) (UniProt Q6PHR2); details: Compound concentration 1000.0 nM
[29] = molecular target: LIM domain kinase 2 (Homo sapiens) (UniProt P53671); details: Compound concentration 1000.0 nM
[30] = molecular target: Serine/threonine-protein kinase BRSK1 (Homo sapiens) (UniProt Q8TDC3); details: Compound concentration 1000.0 nM
[31] = molecular target: Mitogen-activated protein kinase kinase kinase 5 (Homo sapiens) (UniProt Q99683); details: Compound concentration 1000.0 nM
[32] = molecular target: Proto-oncogene tyrosine-protein kinase ROS (Homo sapiens) (UniProt P08922); details: Compound concentration 1000.0 nM
[33] = molecular target: Tyrosine-protein kinase JAK2 (Homo sapiens) (UniProt O60674); details: Compound concentration 1000.0 nM
[34] = molecular target: Receptor tyrosine-protein kinase erbB-4 (Homo sapiens) (UniProt Q15303); details: Compound concentration 1000.0 nM
[35] = molecular target: Ephrin type-B receptor 1 (Homo sapiens) (UniProt P54762); details: Compound concentration 1000.0 nM
[36] = molecular target: Mitogen-activated protein kinase 11 (Homo sapiens) (UniProt Q15759); details: Compound concentration 1000.0 nM
[37] = molecular target: Casein kinase II subunit alpha' (Homo sapiens) (UniProt P19784); details: Compound concentration 1000.0 nM

Mitogen-activated protein kinase kinase kinase 5 (Homo sapiens), sequence (Q99683 whole entry): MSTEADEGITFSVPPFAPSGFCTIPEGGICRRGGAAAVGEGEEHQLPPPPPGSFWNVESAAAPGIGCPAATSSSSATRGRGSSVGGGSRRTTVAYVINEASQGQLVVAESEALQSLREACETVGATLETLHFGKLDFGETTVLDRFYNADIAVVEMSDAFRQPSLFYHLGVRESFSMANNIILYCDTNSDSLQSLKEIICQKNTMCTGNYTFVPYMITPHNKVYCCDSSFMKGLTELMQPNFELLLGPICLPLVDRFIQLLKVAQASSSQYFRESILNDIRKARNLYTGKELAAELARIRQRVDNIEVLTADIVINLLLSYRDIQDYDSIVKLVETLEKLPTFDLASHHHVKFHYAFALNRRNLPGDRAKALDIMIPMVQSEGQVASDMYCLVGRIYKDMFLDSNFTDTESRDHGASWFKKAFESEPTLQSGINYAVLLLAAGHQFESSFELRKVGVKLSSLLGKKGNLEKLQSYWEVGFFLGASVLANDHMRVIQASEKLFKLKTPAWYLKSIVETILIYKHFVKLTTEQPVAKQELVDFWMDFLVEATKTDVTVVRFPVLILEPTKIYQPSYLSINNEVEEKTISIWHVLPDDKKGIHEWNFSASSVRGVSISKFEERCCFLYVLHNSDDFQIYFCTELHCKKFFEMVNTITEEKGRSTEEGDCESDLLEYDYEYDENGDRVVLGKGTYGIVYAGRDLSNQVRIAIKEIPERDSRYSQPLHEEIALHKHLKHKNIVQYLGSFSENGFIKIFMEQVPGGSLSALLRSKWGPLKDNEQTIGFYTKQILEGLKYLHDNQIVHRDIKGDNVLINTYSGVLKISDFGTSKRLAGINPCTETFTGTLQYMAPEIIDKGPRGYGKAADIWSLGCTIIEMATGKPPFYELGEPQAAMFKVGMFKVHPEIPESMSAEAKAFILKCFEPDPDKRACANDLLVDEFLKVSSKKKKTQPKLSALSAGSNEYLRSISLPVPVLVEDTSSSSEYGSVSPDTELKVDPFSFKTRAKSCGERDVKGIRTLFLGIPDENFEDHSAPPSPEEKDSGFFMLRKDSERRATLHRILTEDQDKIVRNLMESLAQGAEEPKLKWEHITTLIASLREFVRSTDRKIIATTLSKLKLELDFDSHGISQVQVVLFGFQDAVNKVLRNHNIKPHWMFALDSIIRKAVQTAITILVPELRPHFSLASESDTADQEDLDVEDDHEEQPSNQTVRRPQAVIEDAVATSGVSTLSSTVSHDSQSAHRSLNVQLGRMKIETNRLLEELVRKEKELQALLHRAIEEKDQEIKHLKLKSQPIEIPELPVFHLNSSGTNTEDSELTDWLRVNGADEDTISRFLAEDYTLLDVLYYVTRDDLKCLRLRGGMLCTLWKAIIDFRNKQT
LIM domain kinase 2 (Homo sapiens), sequence (P53671 whole entry, looked up, the tested form may be a part): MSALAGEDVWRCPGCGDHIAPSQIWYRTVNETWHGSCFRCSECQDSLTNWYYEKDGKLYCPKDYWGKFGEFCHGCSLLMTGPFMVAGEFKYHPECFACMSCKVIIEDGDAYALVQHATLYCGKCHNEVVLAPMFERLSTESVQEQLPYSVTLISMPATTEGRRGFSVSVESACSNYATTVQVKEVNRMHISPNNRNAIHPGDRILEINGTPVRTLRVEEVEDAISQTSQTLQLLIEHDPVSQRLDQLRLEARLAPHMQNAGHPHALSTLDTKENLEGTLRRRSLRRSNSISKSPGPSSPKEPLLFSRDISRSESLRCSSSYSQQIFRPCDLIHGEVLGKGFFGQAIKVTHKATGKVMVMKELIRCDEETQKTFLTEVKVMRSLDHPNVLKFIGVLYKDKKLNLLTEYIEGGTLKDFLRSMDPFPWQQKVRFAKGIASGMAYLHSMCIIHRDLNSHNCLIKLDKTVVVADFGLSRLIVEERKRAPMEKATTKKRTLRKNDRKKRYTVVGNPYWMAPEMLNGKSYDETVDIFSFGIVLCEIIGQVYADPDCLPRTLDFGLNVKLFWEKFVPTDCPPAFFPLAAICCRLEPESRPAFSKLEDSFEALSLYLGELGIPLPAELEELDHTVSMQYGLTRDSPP
ALK tyrosine kinase receptor (Homo sapiens), Q9UM73 [C1156Y], sequence (Q9UM73 whole entry C1156Y, looked up): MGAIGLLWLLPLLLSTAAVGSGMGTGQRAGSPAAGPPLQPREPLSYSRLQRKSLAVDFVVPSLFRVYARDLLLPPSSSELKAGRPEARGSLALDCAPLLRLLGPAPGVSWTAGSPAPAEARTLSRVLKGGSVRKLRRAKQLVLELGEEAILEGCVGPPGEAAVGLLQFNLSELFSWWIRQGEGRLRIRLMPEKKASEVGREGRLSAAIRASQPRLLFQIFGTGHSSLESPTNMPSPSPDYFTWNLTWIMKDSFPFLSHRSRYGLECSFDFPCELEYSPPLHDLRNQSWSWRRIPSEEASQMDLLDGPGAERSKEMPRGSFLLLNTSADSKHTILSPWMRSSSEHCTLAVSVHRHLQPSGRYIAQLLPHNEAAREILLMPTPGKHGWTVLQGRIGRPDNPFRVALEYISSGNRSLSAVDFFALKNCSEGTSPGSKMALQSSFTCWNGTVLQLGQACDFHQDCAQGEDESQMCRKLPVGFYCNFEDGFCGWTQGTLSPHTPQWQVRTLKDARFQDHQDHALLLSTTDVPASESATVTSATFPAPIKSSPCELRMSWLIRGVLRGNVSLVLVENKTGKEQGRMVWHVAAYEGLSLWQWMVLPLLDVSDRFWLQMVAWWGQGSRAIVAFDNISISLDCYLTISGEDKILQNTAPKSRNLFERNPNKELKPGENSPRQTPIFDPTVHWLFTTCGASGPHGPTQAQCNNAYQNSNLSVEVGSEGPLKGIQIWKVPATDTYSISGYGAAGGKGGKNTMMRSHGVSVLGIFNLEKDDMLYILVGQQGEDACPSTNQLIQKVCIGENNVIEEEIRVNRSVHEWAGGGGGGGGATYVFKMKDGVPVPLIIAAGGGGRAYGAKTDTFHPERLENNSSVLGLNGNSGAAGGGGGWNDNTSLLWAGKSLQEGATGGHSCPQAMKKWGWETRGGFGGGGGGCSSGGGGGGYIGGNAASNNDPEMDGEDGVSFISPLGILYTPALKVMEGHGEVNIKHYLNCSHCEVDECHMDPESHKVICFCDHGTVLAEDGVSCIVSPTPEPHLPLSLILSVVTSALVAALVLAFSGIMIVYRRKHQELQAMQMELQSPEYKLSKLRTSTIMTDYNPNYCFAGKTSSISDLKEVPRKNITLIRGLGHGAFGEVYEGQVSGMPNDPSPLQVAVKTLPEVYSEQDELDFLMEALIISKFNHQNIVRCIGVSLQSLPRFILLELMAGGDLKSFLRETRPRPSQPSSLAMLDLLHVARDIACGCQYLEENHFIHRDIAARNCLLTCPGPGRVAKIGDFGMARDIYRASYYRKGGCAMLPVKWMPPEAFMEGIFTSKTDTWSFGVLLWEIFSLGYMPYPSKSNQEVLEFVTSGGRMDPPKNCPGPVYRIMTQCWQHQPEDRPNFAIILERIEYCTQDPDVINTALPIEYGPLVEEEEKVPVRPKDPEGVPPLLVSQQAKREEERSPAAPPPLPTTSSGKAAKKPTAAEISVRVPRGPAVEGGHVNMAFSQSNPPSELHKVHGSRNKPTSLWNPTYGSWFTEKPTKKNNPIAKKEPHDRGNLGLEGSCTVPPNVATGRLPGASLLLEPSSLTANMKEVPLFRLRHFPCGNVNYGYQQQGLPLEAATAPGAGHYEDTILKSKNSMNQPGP
Dual specificity protein kinase TTK (Homo sapiens), sequence (P33981 whole entry): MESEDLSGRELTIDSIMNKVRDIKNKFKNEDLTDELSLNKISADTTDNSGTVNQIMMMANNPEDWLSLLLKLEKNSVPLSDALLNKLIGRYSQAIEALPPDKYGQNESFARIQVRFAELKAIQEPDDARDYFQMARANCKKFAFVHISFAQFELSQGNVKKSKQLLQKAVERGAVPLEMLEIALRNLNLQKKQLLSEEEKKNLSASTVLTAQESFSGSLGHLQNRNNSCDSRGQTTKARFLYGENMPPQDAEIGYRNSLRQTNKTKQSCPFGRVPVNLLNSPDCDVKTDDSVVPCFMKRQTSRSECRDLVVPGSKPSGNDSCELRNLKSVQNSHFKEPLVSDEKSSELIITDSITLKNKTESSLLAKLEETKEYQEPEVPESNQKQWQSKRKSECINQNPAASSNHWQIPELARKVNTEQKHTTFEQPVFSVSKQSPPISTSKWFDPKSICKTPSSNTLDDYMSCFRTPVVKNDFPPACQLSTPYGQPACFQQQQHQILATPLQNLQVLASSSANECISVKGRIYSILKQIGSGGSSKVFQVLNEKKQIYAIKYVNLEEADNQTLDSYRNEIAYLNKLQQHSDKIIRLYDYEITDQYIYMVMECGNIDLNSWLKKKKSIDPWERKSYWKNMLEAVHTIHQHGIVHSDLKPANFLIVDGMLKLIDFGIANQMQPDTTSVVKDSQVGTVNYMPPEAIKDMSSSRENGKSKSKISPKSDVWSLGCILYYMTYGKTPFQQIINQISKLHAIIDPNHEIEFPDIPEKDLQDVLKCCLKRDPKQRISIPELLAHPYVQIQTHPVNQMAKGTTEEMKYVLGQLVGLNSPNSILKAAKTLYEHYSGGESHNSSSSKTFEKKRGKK
Sodium-dependent dopamine transporter (Homo sapiens), sequence (Q01959 whole entry): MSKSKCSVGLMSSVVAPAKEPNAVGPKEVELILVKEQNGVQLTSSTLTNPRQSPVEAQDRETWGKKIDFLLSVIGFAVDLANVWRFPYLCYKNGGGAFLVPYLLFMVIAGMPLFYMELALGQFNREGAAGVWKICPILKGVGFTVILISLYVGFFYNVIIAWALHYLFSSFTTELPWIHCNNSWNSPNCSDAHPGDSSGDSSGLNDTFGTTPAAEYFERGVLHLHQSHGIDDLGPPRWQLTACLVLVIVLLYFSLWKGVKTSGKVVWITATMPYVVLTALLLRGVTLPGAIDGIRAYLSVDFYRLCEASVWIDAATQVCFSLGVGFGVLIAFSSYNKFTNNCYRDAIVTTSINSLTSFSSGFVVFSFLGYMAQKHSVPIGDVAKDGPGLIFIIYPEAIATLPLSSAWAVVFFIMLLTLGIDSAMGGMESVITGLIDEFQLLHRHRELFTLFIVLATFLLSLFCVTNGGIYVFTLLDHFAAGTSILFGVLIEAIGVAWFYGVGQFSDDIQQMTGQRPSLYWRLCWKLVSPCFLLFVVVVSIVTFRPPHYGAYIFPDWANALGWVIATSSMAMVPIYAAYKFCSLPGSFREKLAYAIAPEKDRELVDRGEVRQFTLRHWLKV

| SMILES | residual activity [1] | residual activity [2] | residual activity [3] | % Inhibition of Control Specific Binding (Mean n=2) [4] | residual activity [5] | residual activity [6] | residual activity [7] | residual activity [8] | residual activity [9] | residual activity [10] | residual activity [11] | residual activity [12] | residual activity [13] | residual activity [14] | residual activity [15] | residual activity [16] | residual activity [17] | residual activity [18] | inhibition [19] | inhibition [20] | other results |
| --- | --- | --- | --- | --- | --- | --- | --- | --- | --- | --- | --- | --- | --- | --- | --- | --- | --- | --- | --- | --- | --- |
| COc1ccc2c(c1)O[C@@H](c1ccc(OC)c(OC)c1)C[C@H]2NC(=O)C1(c2ccc3c(c2)OC(F)(F)O3)CC1 [A-1596586] | 84% | 100% | 76% | -17.9% | 86% | 100% | 78% | 62% | 88% | 100% | 87% | 99% | 100% | 90% | 100% | 91% | 85% | 85% | 29.2% | 1.13% | % Inhibition of Control Specific Binding (Mean n=2) [21]: 6.1%; residual activity [22]: 100%; residual activity [23]: 96%; % Inhibition of Control Specific Binding (Mean n=2) [24]: 19.2%; residual activity [25]: 100%; residual activity [26]: 87%; inhibition [27]: 2.95%; residual activity [28]: 85%; residual activity [29]: 100%; residual activity [30]: 99%; residual activity [31]: 94%; residual activity [32]: 97%; residual activity [33]: 75%; residual activity [34]: 90%; residual activity [35]: 87%; residual activity [36]: 92%; residual activity [37]: 87% |
| COc1ccc2c(c1)O[C@H](c1ccc(OC)c(OC)c1)C[C@@H]2NC(=O)C1(c2ccc3c(c2)OC(F)(F)O3)CC1 [A-1596584] | 100% | 100% | 100% | -15.1% | 98% | 100% | 100% | 59% | 100% | 98% | 100% | 100% | 100% | 100% | 92% | 84% | 86% | 100% | 35.1% | 2.35% | % Inhibition of Control Specific Binding (Mean n=2) [21]: 25.8%; residual activity [22]: 100%; residual activity [23]: 96%; % Inhibition of Control Specific Binding (Mean n=2) [24]: 5%; residual activity [25]: 100%; residual activity [26]: 99%; inhibition [27]: 16.1%; residual activity [28]: 90%; residual activity [29]: 100%; residual activity [30]: 100%; residual activity [31]: 100%; residual activity [32]: 73%; residual activity [33]: 98%; residual activity [34]: 94%; residual activity [35]: 100%; residual activity [36]: 93%; residual activity [37]: 100% |
